In PubChem BioAssay (NCI) one finds GI50 and TGI data, which are given here for 32 molecules.

“And” between values parts separate entries of the source, which are not always exact repeats. Identical values can stand only once.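 Grown in 96-well plates, cells were treated for 48 hours with each compound at five concentrations. Insufficient inhibition: endpoint recorded as highest concentration tested. GI50: concentration for 50% inhibition of growth. At the TGI there is no net growth.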 Where only a bound is given, the exact number is not on record here.

In the assay the test system is MDA-MB-468 breast. The assay is described as follows: NCI-60 cell line screen, 48 h.
Take `Cc1cc(N)c2cc(NC(=O)/C=C\c3ccccc3Cl)ccc2n1`: the GI50 was 398 nM and the TGI came to 1.48 µM.
For the molecule `CC(C)(C)c1ccc(OCCCCCCCN2CCNCC2)cc1`, the GI50 is 1840 nM and the TGI came to 3.58 µM.
The corresponding values for `CCCCCCCCCCCCNCCCc1ccccc1` are 1540 nM and 3.17 µM.
As to `C=CCn1c(C)nc2cc(Nc3nc(N4CCCC4)nc4nc[nH]c34)ccc21`, the GI50 is above 100000 nM and the TGI was above 100 µM.
Take `Cc1nc2sc(C(=O)Nc3cccc4c3OCCO4)c(N)c2cc1C(C)O` (centres undefined): the GI50 was 3640 nM and the TGI was above 100 µM.
Consider `CC(=O)OC1C(C)OC(Oc2c(-c3ccc(O)cc3)oc3cc(O)cc(O)c3c2=O)C(O)C1OC(C)=O` (centres undefined), for which the GI50 is 17800 nM and the TGI came out at 42.8 µM.
With `O=C(/C=C/c1cccc(Cl)c1)c1ccccc1`, the GI50 is 13100 nM and the TGI amounted to 26.9 µM.
As to `Cc1nc2ccccc2c(/C=C/c2ccc(F)cc2)c1C(=O)/C=C/c1ccccc1`, the GI50 was 1860 nM and the TGI is 4.26 µM.
Taken in the same sequence, the figures for `COC(=O)c1ccc(C)cc1C1CN=NC12Cc1c(C)cccc1C2=O` (centres undefined) were 30700 nM and above 100 µM.
As for `CC1=C(C(=O)Nc2cc(F)c(F)cc2F)C(c2ccc(N(C)C)cc2)C(C(=O)Nc2cc(F)c(F)cc2F)=C(C)N1`, the GI50 is 30100 nM and the TGI is above 100 µM.
As for `COc1cccc(C2=C(c3cn(C)c4c(C)cccc34)C(=O)NC2=O)c1`, the GI50 was 20600 nM and the TGI was above 25 µM.
Taken in the same sequence, the figures for `O=C1/C(=C/c2ccc([N+](=O)[O-])s2)Oc2ccc(Br)cc21` were 263 nM and 0.781 µM.
As for `O=C(Nc1cccc2[nH]c(C(F)(F)F)nc12)c1ccc(Br)cc1F`, the GI50 was 2400 nM and the TGI came out at 7.05 µM.
With `Nc1ncnc2c1ncn2C1OC(F)(COS(N)(=O)=O)C(O)C1O` (centres undefined), the GI50 is above 100000 nM and the TGI is above 100 µM.
On to `O=NN(CC(=O)NNc1ccccc1)CC(=O)NNc1ccccc1`, for which the GI50 is above 78300 nM and the TGI was above 100 µM.
Take `COc1cc2c(cc1OCCCN1CCN(CCCOc3cc4c(cc3OC)C(=O)N3C[C@H](F)C[C@H]3C=N4)CC1)N=C[C@@H]1C[C@@H](F)CN1C2=O`: the GI50 was below 10 nM and the TGI came to 0.0397 µM.
Turning to `O=C(Nc1ccc(Br)cc1)c1cc(Br)ccc1O`, the GI50 was 328 nM and 722 nM; the TGI is 1.68 µM and 3.57 µM.
`COc1cccc(/C=C2\COc3ccc(O)c(O)c3C2=O)c1OC`: the GI50 was 1670 nM and the TGI is 3.91 µM.
Taken in the same sequence, the figures for `COc1cc(/C=C/C(=O)c2cccc(-n3cc(-c4ccccc4)[nH]c3=O)c2)ccc1O` were 3430 nM and 22.2 µM.
`O=C1c2c[n+](Cc3ccccc3)ccc2-c2nc3ccccc3c3ccnc1c23`: the GI50 was 389 nM and the TGI turned out to be 1.02 µM.
For the molecule `O=C(NCCc1nccs1)c1cnc2c(S)cccc2c1`, the GI50 is 4130 nM and the TGI is 39 µM.
Turning to `Nc1ccccc1SC(CC(=O)c1ccccc1)c1c(Cl)cccc1Cl` (centres undefined), the GI50 was 6300 nM and the TGI was determined as 27.9 µM.
For the molecule `CCn1cnc(C[C@H](NC(=O)[C@@H](NC(=O)Nc2cc(C(F)(F)F)cc(C(F)(F)F)c2)C(C)(C)C)C(=O)OC)c1`, the GI50 was 5180 nM and the TGI was above 10 µM.
Consider `CCc1n(Cc2ccc3ccccc3c2)cc[n+]1Cc1ccc2ccccc2c1`, for which the GI50 was 182 nM and the TGI is 0.859 µM.
Turning to `NC(=O)c1c(NC(=O)c2ccc(C(F)(F)F)cc2Cl)sc2c1CCC(=O)C2`, the GI50 is 277 nM and the TGI worked out at 1.04 µM.
As for `COc1ccc(C(=O)c2no[n+]([O-])c2C(=O)c2ccc(OC)cc2)cc1`, the GI50 is 1370 nM and the TGI amounted to 2.78 µM.
With `C=CC(=O)N1CCN(c2nc(OC[C@@H]3CCCN3C)nc3c(F)c(-c4nc(N)cc(C)c4C(F)(F)F)c(Cl)cc23)[C@@H](C)C1`, the GI50 is 1300 nM and the TGI was found to be 2.7 µM.
For `O=C1C=CC(=O)N1c1ccc2ccccc2c1`, the GI50 is 3560 nM and the TGI is 14.4 µM.
The corresponding values for `Nc1ncnc2occ(-c3ccc(NC(=O)Nc4cccc(C(F)(F)F)c4)cc3)c12` are 3620 nM and 11.8 µM.
Take `COc1ccc(/C(=N/O)c2cc(F)c(F)c(OC)c2F)cc1O`: the GI50 is 552 nM and the TGI is above 100 µM.
As to `Cc1nc2ccccc2c(/C=C/c2ccc(C(F)(F)F)cc2)c1C(=O)/C=C/c1ccccc1`, the GI50 was 1780 nM and the TGI worked out at 3.7 µM.
Consider `O=[N+]([O-])c1cc2c(ccc3ccccc32)o1`, for which the GI50 was 169 nM and the TGI amounted to 0.446 µM.
